The numbers were not newly measured in patent US20200171149A1, “COMBINATION THERAPY FOR NON-SMALL CELL LUNG CANCER POSITIVE FOR EGFR MUTATION” (MEDIMMUNE LIMITED, priority 2015, published 2020), which cites them from elsewhere.

The test system of one series is tumor. The conditions noted are these: patients.
For series [1], the system named is EGFR-TKI sensitizing and resistance T790M mutations. The conditions noted are these: preclinical models; Janne et al., J Clin Oncol 2014.
The next series deals with human T-cell activation. The conditions noted are these: in vitro.
The subject of another series is xenograft model. The conditions noted are these: T-cell dependent mechanism.

For the molecule `COc1cc2ncnc(Nc3ccc(F)c(Cl)c3)c2cc1OCCCN1CCOCC1` [gefitinib, N-(3-chloro-4-fluorophenyl)-7-methoxy-6-(3-morpholinopropoxy)quinazolin-4-amine], the Tumor regression entry in the series on tumor is “tumor regression in some patients”.

For the molecule `C=CC(=O)Nc1cc(Nc2nccc(-c3cn(C)c4ccccc34)n2)c(OC)cc1N(C)CCN(C)C` [AZD9291, N-(2-((2-(dimethylamino)ethyl)(methyl)amino)-4-methoxy-5-((4-(1-methyl-1H-indol-3-yl)pyrimidin-2-yl)amino)phenyl)acrylamide], the “Effectiveness against EGFR mutations” value in series [1] was “effective against both EGFR-TKI sensitizing and resistance T790M mutations”.

B1: MEDI4736: anti-PD-L1 antibody selective for PD-L1; light chain variable SEQ ID NO: 1, heavy chain variable SEQ ID NO: 2 (antibody, V domains shown)
VH: EVQLVESGGGLVQPGGSLRLSCAASGFTFSRYWMSWVRQAPGKGLEWVANIKQDGSEKYYVDSVKGRFTISRDNAKNSLYLQMNSLRAEDTAVYYCAREGGWFGELAFDYWGQGTLVTVSS
VL: EIVLTQSPGTLSLSPGERATLSCRASQRVSSSYLAWYQQKPGQAPRLLIYDASSRATGIPDRFSGSGSGTDFTLTISRLEPEDFAVYYCQQYGSLPWTFGQGTKVEIK
For the molecule B1, in the series with human T-cell activation, the “Relief of PD-L1-mediated suppression of human T-cell activation” value was “can relieve PD-L-mediated suppression of human T-cell activation”. Further, the Tumor growth inhibition result in the series on xenograft model is listed as “inhibits tumor growth”.
